The structures appear in SMILES notation.

In this assay the target is T1, ΔF508-CFTR (Homo sapiens, UniProt P13569, DEL508-508).
T1 construct: expressed in transfected cells
T1 sequence (P13569 with tags, fused parts or gaps DEL508-508): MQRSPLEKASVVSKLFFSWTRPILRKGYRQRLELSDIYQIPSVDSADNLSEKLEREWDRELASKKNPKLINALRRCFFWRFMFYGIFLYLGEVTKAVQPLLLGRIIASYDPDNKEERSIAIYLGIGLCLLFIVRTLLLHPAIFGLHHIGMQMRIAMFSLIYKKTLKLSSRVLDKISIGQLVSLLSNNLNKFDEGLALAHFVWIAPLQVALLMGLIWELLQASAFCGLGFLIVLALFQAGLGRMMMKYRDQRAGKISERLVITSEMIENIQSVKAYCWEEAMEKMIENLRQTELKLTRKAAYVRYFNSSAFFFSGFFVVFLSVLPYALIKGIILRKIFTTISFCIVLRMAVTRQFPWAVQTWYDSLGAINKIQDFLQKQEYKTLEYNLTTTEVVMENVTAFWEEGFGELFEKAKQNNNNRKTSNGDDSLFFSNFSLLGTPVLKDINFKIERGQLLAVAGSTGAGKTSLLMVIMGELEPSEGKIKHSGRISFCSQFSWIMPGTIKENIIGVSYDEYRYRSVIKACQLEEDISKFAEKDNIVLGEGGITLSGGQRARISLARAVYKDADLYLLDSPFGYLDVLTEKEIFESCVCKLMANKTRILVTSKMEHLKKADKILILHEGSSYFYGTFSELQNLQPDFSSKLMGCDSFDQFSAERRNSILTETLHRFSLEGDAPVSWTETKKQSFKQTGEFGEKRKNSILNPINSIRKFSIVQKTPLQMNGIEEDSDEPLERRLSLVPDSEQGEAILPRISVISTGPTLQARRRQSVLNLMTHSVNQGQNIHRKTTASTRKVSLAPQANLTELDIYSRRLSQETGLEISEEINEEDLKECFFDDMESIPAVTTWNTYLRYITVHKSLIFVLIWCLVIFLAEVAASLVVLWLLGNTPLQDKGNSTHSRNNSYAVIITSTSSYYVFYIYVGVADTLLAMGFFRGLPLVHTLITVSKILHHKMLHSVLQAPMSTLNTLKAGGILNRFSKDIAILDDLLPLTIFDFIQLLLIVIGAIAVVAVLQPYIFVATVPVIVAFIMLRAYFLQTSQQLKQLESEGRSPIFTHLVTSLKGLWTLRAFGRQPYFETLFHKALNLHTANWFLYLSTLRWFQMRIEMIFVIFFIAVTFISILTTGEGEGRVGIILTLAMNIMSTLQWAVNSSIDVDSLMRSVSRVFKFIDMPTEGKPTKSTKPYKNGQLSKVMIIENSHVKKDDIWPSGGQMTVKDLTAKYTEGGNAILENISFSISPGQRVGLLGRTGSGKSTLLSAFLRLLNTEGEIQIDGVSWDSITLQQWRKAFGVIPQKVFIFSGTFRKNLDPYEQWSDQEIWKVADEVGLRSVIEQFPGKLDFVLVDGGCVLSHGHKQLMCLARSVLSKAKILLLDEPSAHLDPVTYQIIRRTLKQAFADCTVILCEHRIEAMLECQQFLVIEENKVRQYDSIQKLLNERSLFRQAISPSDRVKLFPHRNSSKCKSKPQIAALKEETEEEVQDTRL
As to the kind of experiment: Membrane potential optical assay (FRET voltage-sensor dyes, VIPR), identification of potentiator compounds. It counts as cell-based. As to conditions: Table 3; assay not given; read-out: % Activity (% Efficacy, relative efficacy). The method, boiled down:
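Potentiator screen measured membrane potential via FRET between CC2-DMPE donor and DiSBAC2(3), read on VIPR II. Compound went in with the first addition of chloride-free gluconate bath; cells were ΔF508-CFTR-expressing NIH3T3 mouse fibroblasts, temperature-corrected at 27 °C for 24 h.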
Take `CCc1cc(C#N)ccc1NC(=O)c1c[nH]c2ccccc2c1=O` [Compound 451, N-(4-cyano-2-ethyl-phenyl)-4-oxo-1H-quinoline-3-carboxamide]: the Emax fell in the range of 25 to 100%.

As for `CC(C)(C)c1cc(F)c(NC(=O)c2c[nH]c3cccc(F)c3c2=O)cc1O` [Compound 610, 5-fluoro-N-(2-fluoro-5-hydroxy-4-tert-butyl-phenyl)-4-oxo-1H-quinoline-3-carboxamide], the Emax is 25 to 100%. As for `Cc1ccc(C(F)(F)F)cc1NC(=O)c1c[nH]c2ccccc2c1=O` [Compound 577, N-[2-methyl-5-(trifluoromethyl)phenyl]-4-oxo-1H-quinoline-3-carboxamide], the Emax fell in the range of 25 to 100%.

Regarding `O=C(Nc1ccccc1-c1ccc(Cl)c(Cl)c1)c1c[nH]c2ccccc2c1=O` [Compound 85, N-[2-(3,4-dichlorophenyl)phenyl]-4-oxo-1H-quinoline-3-carboxamide], the Emax fell in the range of 25 to 100%. For the compound `N#Cc1cc(N2CCCC2)ccc1NC(=O)c1c[nH]c2ccccc2c1=O` [Compound 622, N-(2-cyano-4-pyrrolidin-1-yl-phenyl)-4-oxo-1H-quinoline-3-carboxamide], the Emax was 25 to 100%. As for `CCCCc1ccc(NC(=O)c2c[nH]c3ccccc3c2=O)cc1` [Compound 324, N-(4-butylphenyl)-4-oxo-1H-quinoline-3-carboxamide], the figure is 25 to 100%; as for `CC(C)(C)OC(=O)N1CCC(C)(C)c2ccc(NC(=O)c3c[nH]c4ccccc4c3=O)cc21` [Compound 108, 4,4-dimethyl-7-[(4-oxo-1H-quinolin-3-yl)carbonylamino]-1,2,3,4-tetrahydroquinoline-1-carboxylic acid tert-butyl ester], 25 to 100%.

In the case of `CCCCOc1ccccc1NC(=O)c1c[nH]c2ccccc2c1=O` [Compound 177, N-(2-butoxyphenyl)-4-oxo-1H-quinoline-3-carboxamide], the Emax was greater than 100%. For the compound `O=C(Nc1ccc(OC(F)(F)F)c(N2CCCC2)c1)c1c[nH]c2ccccc2c1=O` [Compound 579, 4-oxo-N-[3-pyrrolidin-1-yl-4-(trifluoromethoxy)phenyl]-1H-quinoline-3-carboxamide], the Emax is 25 to 100%. As for `Nc1cccc(NC(=O)c2c[nH]c3ccccc3c2=O)c1` [Compound 431, N-(3-aminophenyl)-4-oxo-1H-quinoline-3-carboxamide], the Emax lay in the range of 25 to 100%. As for `COc1cccc2[nH]cc(C(=O)Nc3ccc4cc[nH]c4c3)c(=O)c12` [Compound 479, N-(1H-indol-6-yl)-5-methoxy-4-oxo-1H-quinoline-3-carboxamide], the figure is 25 to 100%; as for `CC(=O)c1ccc2c(=O)c(C(=O)Nc3cc(O)c(C(C)(C)C)cc3C(C)(C)C)c[nH]c2c1` [Compound 604, 7-acetyl-N-(5-hydroxy-2,4-ditert-butyl-phenyl)-4-oxo-1H-quinoline-3-carboxamide], 25 to 100%.

On to `O=C(Nc1ccc(C(O)(C(F)(F)F)C(F)(F)F)cc1)c1c[nH]c2ccccc2c1=O` [Compound 150, 4-oxo-N-[4-[2,2,2-trifluoro-1-hydroxy-1-(trifluoromethyl)ethyl]phenyl]-1H-quinoline-3-carboxamide], for which the Emax is 25 to 100%. For `O=C(Nc1cnc2ccccc2c1)c1c[nH]c2ccccc2c1=O` [Compound 75, 4-oxo-N-(3-quinolyl)-1H-quinoline-3-carboxamide] the value was less than 25%; for `O=C(Nc1nc2ccccc2[nH]1)c1c[nH]c2ccccc2c1=O` [Compound 216, N-(3H-benzoimidazol-2-yl)-4-oxo-1H-quinoline-3-carboxamide], less than 25%.

Turning to `CCC(C)c1ccccc1NC(=O)c1c[nH]c2ccccc2c1=O` (stereo not drawn) [Compound 142, 4-oxo-N-(2-sec-butylphenyl)-1H-quinoline-3-carboxamide], the Emax lay within 25 to 100%. Consider `CC(C)(C)c1ccc(NC(=O)c2c[nH]c3ccccc3c2=O)cc1N1CCCCC1` [Compound 510, 4-oxo-N-[3-(1-piperidyl)-4-tert-butyl-phenyl]-1H-quinoline-3-carboxamide], for which the Emax lay within 25 to 100%. As for `Cc1cccc2[nH]cc(C(=O)Nc3ccc(N4CC[C@@H](C)C4)cc3C(F)(F)F)c(=O)c12` [Compound 613, (R)-5-methyl-N-(4-(3-methylpyrrolidin-1-yl)-2-(trifluoromethyl)phenyl)-4-oxo-1,4-dihydroquinoline-3-carboxamide], the figure is 25 to 100%. For `O=C(Nc1ccccc1)c1c[nH]c2ccccc2c1=O` [Compound 215, 4-Oxo-N-phenyl-1H-quinoline-3-carboxamide] the value was 25 to 100%; for `CC(C)(C)c1c[nH]c2cc(NC(=O)c3c[nH]c4ccc(F)cc4c3=O)ccc12` [Compound 554, 6-fluoro-4-oxo-N-(3-tert-butyl-1H-indol-6-yl)-1H-quinoline-3-carboxamide], 25 to 100%. For `Cc1ccc(C#N)c(NC(=O)c2c[nH]c3ccccc3c2=O)c1` [Compound 89, N-(2-cyano-5-methyl-phenyl)-4-oxo-1H-quinoline-3-carboxamide] the value was less than 25%; for `O=C(Nc1ccccc1C(F)(F)F)c1c[nH]c2ccccc2c1=O` [Compound 111, 4-oxo-N-[2-(trifluoromethyl)phenyl]-1H-quinoline-3-carboxamide], 25 to 100%; for `CCOc1ccc2ncc(C(=O)Nc3ccc4cc[nH]c4c3)c(O)c2c1` [Compound 112, 6-ethoxy-4-hydroxy-N-(1H-indol-6-yl)quinoline-3-carboxamide], 25 to 100%. In the case of `Cc1cccc2[nH]cc(C(=O)Nc3ccc(N4C[C@@H]5CC[C@H]4C5)cc3C(F)(F)F)c(=O)c12` [Compound 582, N-(4-((1S,4R)-2-azabicyclo[2.2.1]heptan-2-yl)-2-(trifluoromethyl)phenyl)-5-methyl-4-oxo-1,4-dihydroquinoline-3-carboxamide], the Emax lay in the range of 25 to 100%. For `O=C(Nc1ccc2c(c1)C(O)CCC2)c1c[nH]c2ccccc2c1=O` (stereo not drawn) [Compound 200, 1,4-dihydro-N-(1,2,3,4-tetrahydro-1-hydroxynaphthalen-7-yl)-4-oxoquinoline-3-carboxamide] the value was 25 to 100%; for `CCOCCc1c[nH]c2cc(NC(=O)c3c[nH]c4ccccc4c3=O)ccc12` [Compound 423, N-[3-(2-ethoxyethyl)-1H-indol-6-yl]-4-oxo-1H-quinoline-3-carboxamide], 25 to 100%; for `Cc1ccc(C(F)(F)F)cc1NC(=O)c1c[nH]c2cccc(O)c2c1=O` [Compound 676, 5-hydroxy-N-[2-methyl-5-(trifluoromethyl)phenyl]-4-oxo-1H-quinoline-3-carboxamide], 25 to 100%. Consider `O=C(Nc1ccc2c3c([nH]c2c1)CCCC3)c1c[nH]c2ccccc2c1=O` [Compound 244, 4-oxo-N-(6,7,8,9-tetrahydro-5H-carbazol-2-yl)-1H-quinoline-3-carboxamide], for which the Emax was 25 to 100%. For `CC(C)(C)c1cc2cc[nH]c2cc1NC(=O)c1c[nH]c2c(C(F)(F)F)cccc2c1=O` [Compound 559, 4-oxo-N-(5-tert-butyl-1H-indol-6-yl)-8-(trifluoromethyl)-1H-quinoline-3-carboxamide] the value was less than 25%. For `O=C(Nc1ccc2cc[nH]c2c1)c1cnc2ccc(F)cc2c1O` [Compound 345, 6-fluoro-4-hydroxy-N-(1H-indol-6-yl)quinoline-3-carboxamide], the Emax lay in the range of 25 to 100%.

The values are drawn from US8802700B2 (Vertex Pharmaceuticals Incorporated, priority 2010, dated 2014).
